# Results as given in patent US20130190275A1, “COMBINED THERAPIES OF ANTIPSYCHOTIC DRUGS AND TETRACYCLINES IN THE TREATMENT OF PSYCHIATRIC DISORDERS” (MOR RESEARCH APPLICATIONS LTD., priority 2006, published 2013).
# Counter-ions that a name gives are not always drawn.
# Tests used:
# Assay type in all cases: in vivo, rat
# MK801 treated rats [1] = test: Pre-Pulse Inhibition (PPI) paradigm, MK801 animal model
# Procedure: (§1) Acoustic Startle Response (ASR) and Pre-Pulse Inhibition (PPI): Both experimental paradigms were performed in a room that was adjacent to the laboratory facilities and the animal stall and that was not used for other experiments. The animals were tested in squad of two with startle chambers counterbalanced across the different experimental groups. Startle response and prepulse inhibition were measured using two ventilated startle chambers (SR-LAB system, San Diego Instruments, San Diego, Calif.). Each chamber consisted of a Plexiglas cylinder resting on a platform inside a sound-attenuated, ventilated chamber. A high-frequency loudspeaker inside the chamber produced both a continuous broadband background noise of 70 dB and the various acoustic stimuli. Movement inside the tube was detected by a piezoelectric accelerometer below the frame. The amplitude of the whole body startle to an acoustic pulse was defined as the average of 100 one-msec accelerometer readings collected from pulse onset. These signals were then digitized and stored by a computer. Sound levels within each test chamber were measured routinely using a sound level meter (Radio Shack) to ensure consistent presentation. The SR-LAB calibration unit was used routinely to ensure consistent stabilimeter sensitivity between test chambers and over time (Swerdlow and Geyer, 1998, Schizophrenia Bulletin, 24(2), 285-301).
# (§2) Fifteen minutes before the behavioral procedures conducted at the fourth day, the subject was injected i.p. with an 0.1 mg/kg dose of MK801 or saline, for a total volume of 1 ml per kg of body weight. Next, the subjects passed the three behavioral procedures, described in the following paragraphs.
# (§3) ASR and PPI were measured using two startle chambers, with each chamber consisting of a Plexiglas cylinder resting on a platform inside a sound-attenuated, ventilated chamber (see also materials section). The animals were tested in pairs with startle chambers counterbalanced across the different experimental groups.
# PPI of the startle response was used as a measure of sensorimotor gating, with the startle chambers used to assess the ability of prepulse stimuli to block the startle response. […]
# Pre-Pulse Inhibition (PPI): Startle magnitude is expressed in all the procedures as arbitrary units. Percent PPI (% PPI) was calculated as the mean startle magnitude to stimulus-alone minus the mean startle magnitude to prepulse-stimulus trials, all divided by the mean stimulus-alone trials, and multiplied by 100. The overall mean % PPI was calculated for the four prepulse intensities (72, […], 80, 84 dB). Results were analyzed by two-way ANOVA with a between-subject measure of ‘group’ (difference the treatment groups) and ‘prepulse intensity’ (72, 76, 80, 84 dB).
# MK801 treated rats [2] = test: Habituation of the Acoustic Startle Response (ASR), MK801 animal model
# Procedure: as §1, §2, §3
# The ASR test measured the ability of the animal to habituate to repetitive loud pulses of noise. […] Movement inside the tube was detected by a piezoelectric accelerometer below the frame. The amplitude of the whole body startle to an acoustic pulse was defined as the average of 100 one-msec accelerometer readings collected from pulse onset. […]
# Acoustic Startle Response (ASR): The decrease in ASR in the groups was calculated as the percent of amplitude decrease between the mean of the first five amplitude values and the mean of the last 25 amplitude values.
# Percent habituation=100×[(average startle amplitude in Block 1)−(average startle amplitude in Block 5)/(average startle amplitude in Block 1)]. Results were analyzed by two-way ANOVA a between-subject measure of ‘group’ (treatment group).
# MK801 treated rats [3] = test: Morris Water Maze (MWM) task, MK801 animal model of schizophrenia; details: MK801 alone vs saline group, p<0.001
# Procedure: Morris Water Maze (MWM): The MWM consisted of a water pool (diameter=1.8 m; depth=0.6 m) containing water at 26±1° C. A hidden platform was located 1.5 cm below the water surface. Within the testing room, only distal visuo-spatial cues were available to the rats for location of the submerged platform. A video camera was placed above the center of the pool for tracking the rat, and a video tracking system (Noldus Information Technology b.v., Wageninpen, The Netherlands) with online digital output, directly fed data into a computer and analyzed. Data were analyzed by using an Etho-Vision automated tracking system (Noldus Information Technology).
# as §2
# The MWM, a hippocampal-dependent visuo-spatial learning task, was used to assess the subjects' spatial learning/memory. The ability of an animal to locate a hidden platform submerged under water by using extra-maze cues from the test environment was examined. The rats were trained in a pool 1.8 m in diameter and 0.6 m high, containing water at 26±1° C. A 10 cm square transparent platform was hidden in a constant position in the pool submerged 1 cm below the water level. Within the testing room only distal visuo-spatial cues were available to the rats for location of the submerged platform.
# Rats were given four trials per day, to find the hidden platform (acquisition phase). The escape latency, i.e., the time required by the rat to find and climb onto the platform, was recorded for up to 120 sec. Each rat was allowed to remain on the platform for 30 sec, and was then removed to its home cage.
# Morris Water Maze (MWM): Escape latency, the time between placing the rat in the pool until it located the platform, was measured during behavioral testing. The escape latency was analyzed by means of […] repeated measures analysis of variance (ANOVA) with a between-subjects measure of ‘group’ (treatment group) and a within-subjects measure of ‘trail’ (effects amongst groups in the four different trials).
# The MWM test was then performed (see FIG. 1 for results). A significant main effect of ‘group’, ‘trail’ and a significant ‘group’×‘trails’ interaction was found in the repeated measured ANOVA for the MWM task [F(5,35)=9.699, p<0.001; F(3,33)=31.551, p<0.001; F(15,91)=1.824, p<0.05; respectively].
# [4] = drug+MK801 0.1 mg/kg i.p., minocycline 35 mg/kg x 3 days pretreatment, haloperidol 0.4 mg/kg i.p.
Structure (SMILES),percent of PPI (% PPI) (MK801 treated rats [1]; MK801 alone vs saline treatment group),percent habituation of the startle response (% habituation) (MK801 treated rats [2]; MK801 alone vs saline treated rats),escape latency (MK801 treated rats [3]),percent of PPI (% PPI) (MK801 treated rats [1]; [4]),percent habituation of the startle response (% habituation) (MK801 treated rats [2]; [4])
"C[C@]12N[C@H](Cc3ccccc31)c1ccccc12 [MK801, Dizocilpine maleate]",induced a significant deficit in the PPI,induced a significant deficit in the habituation of ASR,longer escape latencies,,
O=C(CCCN1CCC(O)(c2ccc(Cl)cc2)CC1)c1ccc(F)cc1 [haloperidol],,,,lack of significant effects,not able to prevent the deficits induced by MK801
